1 compound from US11519922B2, “Methods for identifying risk of chemotherapy-induced cardiotoxicity and targeted medical intervention” (Detroit R&D, Inc., priority 2018, dated 2022) can be followed below.

Series [1] concerns H9c2 rat cardiomyocytes. The experiment in a line: 14,15-DHET in cell media by ELISA. The class given is cell-based. The note with it: 1 μM DOX 2 hr. Here is the method:
FIGS. 1A and 1B show the effect of doxorubicin (DOX) on H9c2 rat cardiomyocytes. Cells were treated for 2 hr with media containing 1 μM DOX, washed and kept for 2, 6 and 24 hr in media without DOX. BNP mRNA levels in H9c2 cells were assessed by qRT-PCR (A) and cell media was collected and extracted with ethyl acetate for 14,15-DHET analyses using ELISA kit (Detroit R&D) (B). *p<0.05;
H9c2 cardiomyocytes were treated for 2 hr with and without 1 μM DOX. Levels of 14,15-DHET in cell media increased ˜3-fold (p<0.05) after a 2 hr recovery period prior to detection of cellular hypertrophy at 6 hr and 24 hr recovery periods.
Levels of 14,15-DHET in cardiomyocyte (H9c2 cell) media were assessed by the Detroit R&D 14,15-DHET ELISA. Media, 2 ml, was extracted with 2 ml […]. and levels of 14,15-DHET increased after 2 hr, 6 hr and 24 hr following 2 hr DOX treatment (2 hr, 6 hr and 24 hr recovery) (FIG. 1B).

The test system of series [2] is rat serum. The experiment in a line: Serum fatty acid biomarkers by ELISA in DOX-treated female rats. It counts as in vivo. The note with it: DOX 3 mg/kg/week 2 weeks. Here is the method: To verify that 14,15-DHET levels can be used as an early biomarker for prediction of DOX-dependent cardiotoxicity as previously found in the rat cardiomyocyte study (FIG. 1 and FIG. 2), levels of 14,15-DHET (sEH metabolite) in serum samples from control and DOX-treated rats with and without 2-week recovery were measured using a 14,15-DHET ELISA kit (Detroit R&D).
Levels of 20-HETE (CYP4A/4F-dependent hypertension biomarker) and 8-isoprostane (non-enzymatic oxidative stress biomarker) in rat serum samples were also measured using 20-HETE and 8-isoprostane ELISA kits, respectively, from Detroit R&D.
Biologically active fatty acids were extracted with ethyl acetate from 75 μl of serum samples (n=4) from control and DOX-treated animals with and without 2 weeks recovery. […] However, two weeks after the second injection (2 weeks recovery), when cardiotoxicity was still not detected, levels of 14,15-DHET (a metabolite of soluble epoxide hydrolase) and 8-isoprostane (non-enzymatic oxidative stress biomarker) were increased compared to the control group (FIG. 3B and FIG. 3D). No changes in levels of 20-HETE in rat serum samples between the two groups were observed (FIG. 3C).
Background: ELISA stands for enzyme-linked immunosorbent assay.

Series [3] in a line: Cardiotoxicity / LVEF in breast cancer patients after DOX treatment. It counts as in vivo, human. An excerpt: Chemotherapy-associated cardiotoxicity is defined as either a cardiomyopathy with a reduction of left ventricular ejection fraction (LVEF) ≥5% to <55% with symptoms of heart failure or an asymptomatic reduction of LVEF ≥10% to <55% by the Cardiac Review and Evaluation Committee (CREC) (7).

Series [4] relates to rat heart tissue. The series can be described thus: Heart tissue mRNA biomarkers by RT-PCR in DOX-treated female rats. The settings on record: DOX 3 mg/kg/week 2 weeks, no recovery, normalized by β-actin mRNA.
Description: Rats were euthanized at 48 hr (no recovery) or after 2 weeks (2 weeks recovery) following injection of the rats for 2 weeks with saline (control) or DOX (3 mg/kg/week). BNP mRNA levels in heart were assessed by qRT-PCR and results were normalized by β-actin mRNA (A). […] Results expressed as mean±SD (n=4-6). *p<0.05 and **p<0.01;
A study on serum biomarkers to detect risk of chemotherapy-induced cardiotoxicity was carried out using female rats treated with and without DOX (3 mg/kg/week, i.v. for 2 weeks) (no recovery group: Control and DOX, n=6/group) and with a 2-week recovery period (2 weeks recovery group: Control and DOX, n=6/group).
BNP mRNA levels in heart tissues were measured by reverse-transcription/real time PCR (Sybr green) and normalized using β-actin mRNA levels (13).
Heart total RNA was extracted using the TRIzol method, cDNA was synthesized using High Capacity cDNA Reverse Transcript Kit (Applied Biosystems). Levels of mRNA in cardiomyocytes were measured by real time PCR (Sybr green) using rat specific primers.
Series [5] deals with plasma of breast cancer patients. The series can be described thus: Plasma 14,15-DHET by ELISA in breast cancer patients before and after DOX.
Description: Plasma samples were extracted using ethyl acetate and levels of 14,15-DHET were assessed in triplicate for ELISA.
A blind test for the early biomarker, 14,15-DHET (metabolite of sEH), was carried out with plasma samples from 5 breast cancer patients obtained before and after 3 months of DOX treatment (FIG. 4).
Fatty acids in the plasma samples (50 μl/sample) were extracted with ethyl acetate and levels of 14,15-DHET were assessed in triplicate samples using an ELISA kit from Detroit R&D.
Plasma samples from 5 breast cancer patients obtained before (n=5) and after (n=5) 3 months of DOX treatment (60 mg/m^2/injection for 4 injections).
Biologically active fatty acids in the plasma samples (50 μl/sample) were extracted with ethyl acetate, dried and re-suspended with 30 μl of DMF followed by dilution buffer to 900 μl. Levels of 14,15-DHET were assessed in triplicate using an ELISA kit from Detroit R&D (100 μl/well).

Each structure is given as a SMILES string. “Also recorded” adds a separate entry of the source.

With `COc1cccc2c1C(=O)c1c(O)c3c(c(O)c1C2=O)C[C@@](O)(C(=O)CO)C[C@@H]3O[C@H]1C[C@H](N)[C@H](O)[C@H](C)O1` [DOX, doxorubicin], the “14,15-DHET levels in cell media” value in series [1] (6 and 24 hr recovery) was “remained elevated; also recorded: increased”. For the same compound, in series [1] (2 hr recovery), the “increase of 14,15-DHET in cell media” value is approximately 3 fold. Besides, the “Serum 20-HETE” value was “No change” in series [2] (2 weeks recovery) and “did not significantly change; also recorded: No change” in series [2] (no recovery (~48 hr)). In addition, in series [2] (no recovery (~48 hr)), the “Serum 8-Isoprostane” value is listed as “did not significantly change; also recorded: No change”. The “Serum 14,15-DHET” value in series [2] (no recovery (~48 hr)) is “did not significantly change; also recorded: No change”. In addition, the cardiotoxicity detected result in series [3] (5 breast cancer patients, at completion of 3 months of DOX treatment) is “no cardiotoxicity”. For the same compound, the “reduction of LVEF” value was approximately 28% in series [3] (Patient #3, 3 months after 3 months of DOX treatment was completed); 22% in series [3] (Patient #4, 3 months after 3 months of DOX treatment was completed); “around 20%” in series [3] (Patients #3 and #4, 6 months after 3 months of DOX treatment was completed); “higher than 20%” in series [3] (Patients #3 and #4, at 3 and 6 months after DOX treatment was completed). For the same compound, the “change of LVEF” value in series [3] (the other patients (#1, #2, #5), at 3 and 6 months after DOX treatment) was “no significant changes”. Moreover, in series [4], the “Heart tissue BNP mRNA” value is listed as “No change”. The “Heart tissue MPO mRNA” value in series [4] is reported as “No change”. Moreover, in series [4], the “Heart tissue S100A9 mRNA” value is “No change”. For the same compound, the “increase of plasma 14,15-DHET” value in series [5] (Patient #3, after vs before 3 months of DOX treatment) is recorded as approximately 38%; in series [5] (Patient #4, after vs before 3 months of DOX treatment), approximately 55%. For the same compound, the “plasma 14,15-DHET levels” value in series [5] (Patients #2 and #5, after vs before 3 months of DOX treatment) is on record as “did not significantly increase”.
